Experimental data published in patent US4590161A, “Microbiologically produced L-phenylalanine-dehydrogenase, process for its recovery and use” (priority 1983, dated 1986).

Assays:
[1] = test system: L-phenylalanine-dehydrogenase; test: Batch reductive amination of α-ketocarboxylic acids with NADH regeneration by formate-dehydrogenase, product on aminoacid analyzer; format: biochemical, Brevibacterium species DSM 2448
Method: In order to regenerate the NADH consumed in the reductive amination there was added to the reaction mixture an excess of ammonium formate and the enzyme formate-dehydrogenase (E.C. 1.2.1.2) which in the oxidation of formate to CO2 reduces the cosubstrate NAD^+ to NADH.
The test mixture contained thereby uniformly 400 mM of ammonium formate (pH 8.5), 0.3 mM NADH, 0.6 U/ml formate-dehydrogenase (prepared according to Kroner et al (1982), J. Chem. Tech. Biotechnol, Volume 32, pages 130 to 137), 0.5 U/ml L-phenylalanine-dehydrogenase, 25 mM α-ketocarboxylic acid. The total volume was 3 ml. The incubation was carried out with stirring at 27° C. The product formation in each case was followed on the aminoacid analyzer.

[2] = test system: L-phenylalanine-dehydrogenase; test: Continuous production of L-phenylalanine in enzyme membrane reactor with PEG-NADH; format: biochemical, Brevibacterium species DSM 2448; conditions: over 110 hours, residence time 2.5 hours, 20 mM phenyl pyruvate
Source text: It is possible to continuously synthesize phenalyalanine from phenyl pyruvate in an enzyme membrane reactor using molecular weight enlarged NADH bound to polyethylene glycoe (PEG). The PEG-NADH was produced according to German Pat. No. 2,841,414. The modified coenzyme and the enzyme formate-dehydrogenase employed and L-phenylalanine-dehydrogenase were retained in the reactor by an ultrafiltration membrane YM5 (product of the Amicon Company, Witten) while the lower molecular weight components of the reaction solution, unreacted substrate and the L-phenylalanine formed were continuously removed from the reactor. The reactor volume was held constant while phenyl pyruvate and ammonium formate were metered in from a reservoir to the same extent that the ultrafiltrate left the reactor. The reactor volume was 10 ml, the concentration of PEG-NADH 0.3 mM. There were injected into the reactor 20 units of formate-dehydrogenaseand 20 units of L-phenylalanine-dehydrogenase. […]
The reaction solution was continuously circulated over the membrane at 30 ml/hour with a peristaltic pump. […] The ultrafiltrate was collected in fractions and the content of L-phenylalanine determined on the aminoacid analyzer. Over a time span of 110 hours on the average 70% of the phenyl pyruvate was converted to L-phenylalanine, in the combined ultrafiltrates there were measured 6.9 mmoles (1.14 grams) of L-phenylalanine. […]

[3] = test system: L-phenylalanine-dehydrogenase; test: Photometric test of reductive amination (decrease of NADH at 340 nm); conditions: purified PheDH (0.055 mg protein/ml), pH 8.5, 0.2 mM NADH, 0.7M ammonium chloride
Method: The enzyme activity is determined with a photometric test, by measuring the decrease of the adsorption of NADH at 340 nm. […] The reaction rate of the catalyzed reaction is measured in relation of pH. […] If the substrate concentration of the aromatic α-ketocarboxylic acids or of the aromatic L-aminocarboxylic acids is small compared to their Km value then the reaction rate depends linearly on the substrate concentration.
The relationship of the speed of reaction of the reductive amination of phenyl pyruvate to L-phenylalanine for the substrate NADH was investigated in the following test mixture:
The dependency of the speed of reaction of the reductive amination of phenyl pyruvate to L-phenylalanine on the ammonium ion concentration was investigated in the following test mixture.

[4] = 25 mM α-ketocarboxylic acid, 0.5 U/ml enzyme, 27° C., 2 hours
[5] = 25 mM α-ketocarboxylic acid, 0.5 U/ml enzyme, 27° C., 6 hours

In the case of `O=C(O)C(=O)Cc1ccccc1` [Phenylpyruvate, Phenyl pyruvic acid], the “Product Formation after 2 hours, %” value [1, 4] is reported as 50%, the “Product Formation after 2 hours, mM” value [1, 4] is reported as 12,5 mM and the “Product Formation after 6 hours, %” value [1, 5] is reported as 66%. The “Product Formation after 6 hours, mM” value [1, 5] was 16,6 mM, the “Utilization as a substrate” value ([1]; result in words) was “converted well” and the “phenyl pyruvate converted to L-phenylalanine, on the average” value [2] was 70%. For the same molecule, the Km [3] was 110 µM and the Vmax [3] was 1.82 U/ml.
